Source: article PMC10221320
Positions of bridges follow the written chain, without caps; N, C: chain ends. No end group written: not given here.

Columns and labels:
[1] = intraperitoneal administration; ref [40]; cited from earlier work
[2] = tested on: rat ASIC3 (rASIC3); test: Two-electrode voltage clamp, rASIC3 in Xenopus laevis oocytes; type: cell-based; details: 1 μM; pH drop from 7.4 to 5.5; −50 mV; n = 5; recombinant peptide
[3] = tested on: CD-1 mice; test: Complete Freund's adjuvant-induced acute inflammation; type: in vivo, mouse
Method: (§1) The animal studies were performed under the European Commission’s legislation (Directives 86/609/EEC, 2010/63/EU), the National Standard of the Russian Federation “Good Laboratory Practice” (GOST P 53434-2009, Moscow, Russia), and Committee on Ethics of Laboratory Animal Handling № 05/21, 20 September 2021 and 08/21, 30 December 2021 protocols (PIBOC FEB RAS). Adult female CD-1 mice weighing 25 ± 2 g were subjected to a 12 h light–dark cycle at room temperature and with ad libitum access to food and water. There were seven or eight individuals in each group.
Three groups of animals were treated with peptides at doses of 0.01, 0.1 and 1 mg/kg (intravenously) 30 min before the induction of inflammation. The control animal group received an identical volume of saline. The positive control group received diclofenac (Hemofarm A.D., Vršac, Serbia) at a dose of 1 mg/kg. The edema was induced by a 20 µL injection of complete Freund’s adjuvant (CFA) (MP Biomedicals, Irvine, CA, USA) in the hind paw pad. The resulting edema was measured at 1, 2, 4, 24 and 48 h using a plethysmometer (Ugo Basile, Gemonio (VA), Italy). The anti-inflammatory threshold was estimated as a decrease in the paw volume and volume growth index (%), calculated using the formula: Volume Growth Index (%) = [(VCFA − Vi)/Vi] × 100, (1), where VCFA is the volume of the paw after the introduction of CFA and Vi is the volume of the paw before the introduction of CFA.

[4] = tested on: rat ASIC3 (rASIC3); details: ref [41]; read-out: EC50, potentiation of rASIC3 current; cited from earlier work
[5] = tested on: CD-1 mice; test: Acetic-acid-induced writhings (acid-induced muscle pain model); type: in vivo, mouse
Method: as §1
Three groups of animals were treated with peptides at doses of 0.01, 0.1 and 1 mg/kg (intravenously) 15 min before an injection of 300 μL of a 0.7% acetic acid solution. The control animal group received an identical volume of saline. The positive control group received intravenously a dose 1 mg/kg of diclofenac (Hemofarm A.D., Vršac, Serbia), a commercial drug of the NSAID group. Fifteen minutes immediately after acid administration, the number of writhings and the writhing time (time in a spasmodic state) were counted.

[6] = tested on: rat ASIC1a (rASIC1a); design: method as in PMID 29684594, PMID 32326130; details: ref [40],[41]; read-out: IC50, inhibition of rASIC1a; cited from earlier work
[7] = tested on: rat ASIC1a (rASIC1a); test: Two-electrode voltage clamp, rASIC1a in Xenopus laevis oocytes; type: cell-based; details: 1 μM; pH drop from 7.4 to 5.5; −50 mV; n = 5; recombinant peptide
[8] = tested on: CD-1 mice; test: Acute toxicity, intravenous; type: in vivo, mouse; details: 1 mg/kg i.v., single; 24 h observation
Method: as §1
Lyophilized peptides were dissolved in 0.9% NaCl solution (saline) and administered once intravenously at doses of 1 mg/kg; the control group received saline (10 mL/kg or 250 µL/mouse). Then, alterations in physiological parameters, such as motility, behavioral responses and physical activity, were registered in each of the animal groups over 24 h.

[9] = tested on: CD-1 mice; test: Open field test; type: in vivo, mouse; details: for N (c.z.), number of visits to central zone / N (def), number of bowel movements / N (peeps), number of peeps into minks / N (racks), vertical activity / N (s.p.), number of visits to side platform / S (act), distance traveled during activity / S, distance traveled / T (act), activity time / T (b.z.), staying on the border zone / T (c.z.), time spent on the central zone / T (e.c.z.), time of exit from the central zone / T (pass), passivity time / V(act), average movement speed during activity / V, average travel speed: mean ± SD
Method: as §1
The animal activity and anxiety-related and exploratory behaviors were estimated at the open field facility (OpenScience, Krasnogorsk, Russia). Three groups of animals were treated with peptides at doses of 0.01, 0.1 and 1 mg/kg (intravenously) 30 min before testing. The control group was injected with an identical volume (50 µL) of saline. The animals were placed in the center of the lightened arena, and the recording lasted 3 min. Using the software “Minotaur” (LLC “Neurobiotics”, Zelenograd, Russia), 14 parameters were estimated: time (T) of activity (act); passivity (pass); spent on the central zone (c.z.), staying on the border zone (b.z.); exit from the central zone (e.c.z.); average travel speed (V, m/s); average movement speed during activity (V(act)); distance traveled (S, m); distance traveled during activity (S (act)); number (N) of visits to central zone (c.z.); visits to side platform (s.p.); vertical activity (racks); peeps into minks (peeps); and bowel movements (def).

[10] = i.v. 15 min before 0.7% acetic acid
[11] = 0.01 mg/kg i.v. 30 min before testing, n = 7–8
[12] = 0.1 mg/kg i.v. 30 min before testing, n = 7–8
[13] = 1 mg/kg i.v. 30 min before testing, n = 7–8

GTPCDCYGYTGVYWFMLSRCPSGYGYNLSCHYFMGICCVKR (disulfide 4-37, 6-30, 20-38 (inferred)) [Hmg 1b-4]
maximal nontoxic dose [1]: 10 mg/kg
potentiation of rASIC3 currents [2]: 29%
decrease in paw volume and growth index of edema ([3]; 1 mg/kg i.v.): more than 1.5 times
anti-inflammatory effect ([3]; 0.01, 0.1 and 1 mg/kg i.v. 30 min before CFA): demonstrated an anti-inflammatory effect at all tested doses
paw edema volume decrease compared with diclofenac ([3]; 1 and 0.1 mg/kg i.v., diclofenac 1 mg/kg i.v.): greater than the decreases caused by diclofenac
anti-inflammatory effectiveness vs other APETx-like / sea anemone peptides ([3]; comparison with APETx2 and Ugr 9-1 data of ref [34]): significantly superior not only to Hmg 1b-2, but also to APETx2 and Ugr 9-1
EC50 [4]: 1.53 ± 0.07 µM
difference in analgesic activity between the two peptides ([5]; i.v.): no significant difference in analgesic activity between each other
reduction in duration of writhings vs control [5, 10]: more than 2.5 times
reduction in number of writhings vs control [5, 10]: 1.5 times
IC50 [6]: 1.25 µM
inhibition of rASIC1a currents [7]: 45%
toxicity symptoms [8]: did not cause the symptoms of neurotoxicity or obvious changes in the behavior of animals
N (c.z.), number of visits to central zone [9, 11]: 12 ± 0.8
N (def), number of bowel movements [9, 11]: 1.2 ± 0.2
N (peeps), number of peeps into minks [9, 11]: 8.0 ± 0.5
N (racks), vertical activity [9, 11]: 27.2 ± 1.9
N (s.p.), number of visits to side platform [9, 11]: 13.3 ± 1.1
S (act), distance traveled during activity [9, 11]: 25.0 ± 2.4 m
S, distance traveled [9, 11]: 25.0 ± 1.8 m
T (act), activity time [9, 11]: 113.5 ± 9.5 s
T (b.z.), staying on the border zone [9, 11]: 145.4 ± 5.2 s
T (c.z.), time spent on the central zone [9, 11]: 34.2 ± 2.8 s
T (e.c.z.), time of exit from the central zone [9, 11]: 6.5 ± 3.1 s
T (pass), passivity time [9, 11]: 64.2 ± 7.4 s
V(act), average movement speed during activity [9, 11]: 0.22 ± 0.02 m/s
V, average travel speed [9, 11]: 0.14 ± 0.02 m/s
N (c.z.), number of visits to central zone [9, 12]: 21.2 ± 6.1
N (def), number of bowel movements [9, 12]: 0
N (peeps), number of peeps into minks [9, 12]: 7.8 ± 2.1
N (racks), vertical activity [9, 12]: 37.0 ± 7.8
N (s.p.), number of visits to side platform [9, 12]: 20.1 ± 6.4
S (act), distance traveled during activity [9, 12]: 24.2 ± 5.1 m
S, distance traveled [9, 12]: 24.2 ± 5.1 m
T (b.z.), staying on the border zone [9, 12]: 127.5 ± 10.0 s
T (c.z.), time spent on the central zone [9, 12]: 53.8 ± 10.3 s
T (e.c.z.), time of exit from the central zone [9, 12]: 6.1 ± 3.3 s
T (pass), passivity time [9, 12]: 55.1 ± 11.1 s
V(act), average movement speed during activity [9, 12]: 0.22 ± 0.03 m/s
V, average travel speed [9, 12]: 0.14 ± 0.03 m/s
T (act), activity time ([9]; 0.1 mg/kg i.v. 30 min before testing, n = 7–8 (SD on next line: Hmg 1b-2 10.7, Hmg 1b-4 13.1)): 122.3 s
time spent in the center of the arena ([9]; 0.1 mg/kg i.v., vs control): increased the time the animals spent in the center of the arena
N (c.z.), number of visits to central zone [9, 13]: 16.8 ± 2.7
N (def), number of bowel movements [9, 13]: 0.5 ± 0.7
N (peeps), number of peeps into minks [9, 13]: 9.0 ± 1.5
N (racks), vertical activity [9, 13]: 37.4 ± 3.9
N (s.p.), number of visits to side platform [9, 13]: 16.9 ± 2.8
S (act), distance traveled during activity [9, 13]: 24.6 ± 7.5 m
S, distance traveled [9, 13]: 24.6 ± 2.3 m
T (b.z.), staying on the border zone [9, 13]: 143.8 ± 8.2 s
T (c.z.), time spent on the central zone [9, 13]: 34.9 ± 5.9 s
T (e.c.z.), time of exit from the central zone [9, 13]: 6.4 ± 2.4 s
T (pass), passivity time [9, 13]: 56.8 ± 9.1 s
V(act), average movement speed during activity [9, 13]: 0.21 ± 0.02 m/s
V, average travel speed [9, 13]: 0.14 ± 0.01 m/s
T (act), activity time ([9]; 1 mg/kg i.v. 30 min before testing, n = 7–8 (SD on next line: Hmg 1b-4 10.4)): 119.9 s
number of vertical stances ([9]; 0.1 and 1 mg/kg i.v., vs control): increased
conclusion on CNS effect ([9]; i.v.): anxiolytic effect
effect on distance travelled and speed of movement ([9]; i.v.): did not affect these options
exploration activity (number of peeps into the holes) ([9]; i.v.): significantly increased the exploration activity of mice
most effective dose on peeps into the holes ([9]; i.v.): 1 mg/kg
percentage of the activity time ([9]; i.v., control group 50%, significant increase): 70%
